Test results from paper PMC9491098, “Discovery of novel drug-like antitubercular hits targeting the MEP pathway enzyme DXPS by strategic application of ligand-based virtual screening” (Chemical Science, 2022).

These molecules were tested against MtDXPS (Mycobacterium tuberculosis, UniProt P9WNS3) (assay: biochemical). Settings: not given.
MtDXPS, sequence (P9WNS3 whole entry, looked up): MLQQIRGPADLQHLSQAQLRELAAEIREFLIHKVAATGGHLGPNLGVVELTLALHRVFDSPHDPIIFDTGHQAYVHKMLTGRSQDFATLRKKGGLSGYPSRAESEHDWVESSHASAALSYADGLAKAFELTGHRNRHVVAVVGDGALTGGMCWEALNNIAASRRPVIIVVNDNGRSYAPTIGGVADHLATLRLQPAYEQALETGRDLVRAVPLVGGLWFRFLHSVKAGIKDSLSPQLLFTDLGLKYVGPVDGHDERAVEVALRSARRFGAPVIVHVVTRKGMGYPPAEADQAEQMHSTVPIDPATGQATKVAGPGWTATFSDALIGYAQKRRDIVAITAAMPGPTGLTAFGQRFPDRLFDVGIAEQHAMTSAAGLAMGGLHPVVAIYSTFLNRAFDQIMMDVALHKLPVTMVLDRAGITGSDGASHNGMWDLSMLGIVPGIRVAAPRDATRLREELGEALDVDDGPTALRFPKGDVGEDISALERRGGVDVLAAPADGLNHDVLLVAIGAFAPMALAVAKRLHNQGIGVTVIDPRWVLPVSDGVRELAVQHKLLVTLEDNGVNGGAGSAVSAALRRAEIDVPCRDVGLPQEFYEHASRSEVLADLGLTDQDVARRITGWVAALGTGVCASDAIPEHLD

Row | SMILES | IC50 [µM] | inhibition at 1000 μM
1 | COc1cc(Cl)c(/C=C2\SC(=S)N(CC(=O)O)C2=O)c(OC)c1 [Compound 50] | > 240 | 
2 | O=C(O)Cc1ccc(-n2cnnn2)cc1 [Compound 53] |  | ~ 25 % inhibition
3 | NC(Cc1ccc(O)cc1)c1nc2ccccc2[nH]1 (centres unmarked) [Compound 75] | > 1000 | 
4 | O=Cc1ccc(O[C@@H]2O[C@H](CO)[C@@H](O)[C@H](O)[C@H]2O)cc1 [Compound 82] | > 1000 | 

Same assay, conditions: IC50 (μM)

Row | SMILES | IC50 [µM]
5 | Cc1cccc(C(=O)N2CCC(C(N)=O)CC2)c1 [Compound 44] | > 1000

Same assay, conditions: IC50 against MtDXPS

Row | SMILES | IC50 [µM]
6 | CC(C)c1ccc(C(C)N2Cc3nc(N)ncc3C2=O)cc1 (centres unmarked) [Compound 4] | 1020 ± 88
7 | Cc1nc(C)c(-c2csc(Nc3cccc(Cl)c3C)n2)s1 [Compound 8] | 117 ± 25

Same assay, conditions: Table S1, first round of LBVS; MtDXPS; read-out: IC50

Row | SMILES | IC50 [µM]
8 | CSc1ccc(C2N=C(N)Nc3nc4ccccc4n32)cc1 (centres unmarked) [Compound 37] | > 60
9 | Cc1sc(N)c(C(=O)c2ccccc2)c1C [Compound 38] | > 120
10 | Cc1n[nH]c(O)c1C1OC(=O)c2ccccc21 (centres unmarked) [Compound 39] | > 1000
11 | CCn1c(S)nnc1-c1csc2c1CCCC2 [Compound 40] | > 240
12 | Cc1ccccc1-n1c(S)nnc1-c1csc2c1CCCC2 [Compound 41] | > 8
13 | Cc1nn(CCc2nnc(S)n2Cc2ccccc2)c(C)c1Br [Compound 42] | > 30
14 | Oc1ncnc(O)c1C(c1cccs1)c1c(O)ncnc1O [Compound 43] | > 500
15 | Cc1nc(-c2ccccc2)nc(Nc2ccccc2)c1Cc1ccccc1 [Compound 45] | > 15
16 | COc1ccc2[nH]cc(C3NC(N)=Nc4nc5ccccc5n43)c2c1 (centres unmarked) [Compound 46] | > 500
17 | CC(C)c1ccc(CN(C(=O)COc2ccccc2)c2ccccn2)cc1 [Compound 47] | > 30
18 | O=C(O)CCc1ccc(-c2ccc(F)cc2)n1Cc1ccco1 [Compound 48] | > 500
19 | Cc1ccc(C2NC(N)=Nc3nc4ccccc4n32)o1 (centres unmarked) [Compound 49] | > 1000
20 | Nn1c(S)nnc1Cn1cnc2ccccc21 [Compound 51] | > 1000
21 | CCNC(=S)Nc1ccc(Cc2ccncc2)cc1 [Compound 52] | > 240
22 | S=c1[nH]ccn1Cc1ccccc1 [Compound 54] | > 500
23 | Cc1cc(C(=O)O)c(-c2ccccc2)o1 [Compound 55] | > 1000
24 | O=C1NC(=O)C(c2ccccc2)N1 (centres unmarked) [Compound 56] | > 1000
25 | N=C1NC(=O)C(CC(N)=O)S1 (centres unmarked) [Compound 57] | > 1000
26 | CN(C)Cc1ccc(O)cc1 [Compound 58] | > 1000
27 | C=CCN1C(=O)N/C(=C/c2ccc(O)c(OCC)c2)C1=O [Compound 59] | > 30
28 | O=C1N/C(=C/c2ccc(O)c(I)c2)C(=O)N1c1ccc(Cl)cc1 [Compound 60] | > 120
29 | OCc1cccnc1-c1nc2ccccc2s1 [Compound 61] | > 60

Row | SMILES | IC50 [µM]
30 | COc1ccc(OC)c(C2CC(=O)NC3=C2C(=O)CCC3)c1 (centres unmarked) [Compound 63] | > 500
31 | CC(C)(CO)NCc1cccs1 [Compound 64] | > 1000
32 | O=c1c2ncccc2nc(O)n1Cc1cccnc1 [Compound 65] | > 240
33 | COCC(=O)N(C)Cc1cn(C)nc1C [Compound 66] | > 1000
34 | CCn1nccc1CN(C)C(=O)C1CCC1 [Compound 67] | > 1000
35 | CN1C(=O)CCC(C(=O)O)C1c1ccccc1 (centres unmarked) [Compound 68] | > 1000
36 | CCCCNC(=O)N(C)Cc1c(C)nn(CC)c1C [Compound 69] | > 1000
37 | COc1ccc(Cn2ccnc2)cc1N [Compound 70] | > 1000
38 | CCC1CCC2(CC1)N=C(O)N(CC(=O)c1ccc3c(c1)CCC3)C2=O (centres unmarked) [Compound 71] | > 60
39 | Cc1cc(C)n(CCc2nnc(S)n2-c2ccc(Br)cc2)n1 [Compound 72] | > 120
40 | Cc1ccc(-n2c(S)nnc2CCn2nc(C)cc2C)cc1 [Compound 73] | > 500
41 | Cc1cc(C)n(CCc2nnco2)n1 [Compound 74] | > 1000
42 | O=C(O)c1cc(O)ccc1C=C(Cl)Cl [Compound 79] | > 1000
43 | CCCCC(C(=O)O)C(C)CC(=O)Nc1nncs1 (centres unmarked) [Compound 80] | > 1000
44 | O=C(Nc1ccc(O)cc1C(=O)O)c1ccco1 [Compound 81] | > 60
45 | Cc1c(/N=C2\C(=O)N(CC(=O)O)c3ccccc32)c(=O)n(-c2ccccc2)n1C [Compound 84] | > 120
46 | CN1NC(c2ccc(O)cc2)C2C(=O)NC(=O)C21 (centres unmarked) [Compound 85] | > 120
47 | Cc1ccc(C(=O)Nc2ccc(O)cc2C(=O)O)cc1 [Compound 86] | > 120
48 | CCc1cc(C(N)=O)c(NC(=O)c2cccnc2)s1 [Compound 87] | > 60
49 | COc1cc(/C=C2\C(=O)Nc3ccc(Br)cc32)cc(OC)c1O [Compound 88] | > 120
50 | CCCSc1nnc(-c2ccccc2NC(C)=O)c(O)n1 [Compound 89] | > 120
51 | CCCCC(NS(=O)(=O)c1cc2c3c(c1)c(C)cc(=O)n3CC2)C(=O)O (centres unmarked) [Compound 90] | > 60

Same assay, conditions: Table S2, second round of LBVS; MtDXPS; read-out: IC50

Row | SMILES | IC50 [µM]
52 | OCCc1nc2ccccc2n1Cc1cccc(Cl)c1 [Compound 100] | > 236
53 | OCCc1nc2ccccc2n1Cc1ccc(Cl)cc1 [Compound 101] | > 440
54 | OCCc1nc2ccccc2n1Cc1ccc(F)cc1 [Compound 102] | > 540
55 | CC(C)(C)c1ccc(Cn2c(CCCO)nc3ccccc32)cc1 [Compound 103] | > 90
56 | CC(C)Cc1nc2ccccc2n1Cc1ccc(Cl)cc1 [Compound 104] | > 63
57 | COc1ccc(Cc2nc3ccccc3n2CC(O)CO)cc1 (centres unmarked) [Compound 105] | > 2000
58 | CNc1ncc2c(n1)CN(CCc1ccccc1F)C2=O [Compound 106] | > 340
59 | Nc1ncc2c(n1)CN(Cc1ccccc1C(F)(F)F)C2=O [Compound 107] | > 380
60 | Nc1ncc2c(n1)CN(Cc1ccc3c(c1)OCO3)C2=O [Compound 108] | > 260
61 | Cc1ccc(/C(=N\O)c2ccc(O)cc2O)cc1 [Compound 110] | > 1000
62 | COc1ccc(OC/C(=N\O)c2ccc(O)cc2O)cc1 [Compound 111] | > 300
63 | O=C1/C(=N\O)c2ccc(Cl)cc2N1Cc1ccccc1 [Compound 112] | > 900
64 | O=C1/C(=N\O)c2c(Cl)cccc2N1Cc1ccccc1 [Compound 113] | > 30
65 | Cc1ccc(C)c2c1/C(=N/O)C(=O)N2Cc1ccccc1 [Compound 114] | > 60
66 | ON=C(c1ccccc1)c1ccccc1 [Compound 115] | > 500
67 | Nc1ccncc1/C(=N/O)c1ccccc1 [Compound 116] | > 2000
68 | O/N=C(/c1ccccc1)c1ccccn1 [Compound 117] | > 500
69 | Cc1sc(-n2c(C)cc(/C=N/O)c2C)c(C(=O)O)c1C [Compound 118] | > 800
70 | CC(C)(C)C(O)/C(=N/O)n1cncn1 (centres unmarked) [Compound 120] | > 200
71 | O/N=C/c1cccn1-c1ccc(Br)cc1 [Compound 121] | > 200
72 | CCCOc1ccc(C2N=C(N)Nc3nc4ccccc4n32)cc1 (centres unmarked) [Compound 122] | > 50
73 | NC1=NC(c2ccccc2F)n2c(nc3ccccc32)N1 (centres unmarked) [Compound 123] | > 120
74 | CCc1ccc(C2N=C(N)Nc3nc4ccccc4n32)cc1 (centres unmarked) [Compound 124] | > 30
75 | CN(C)c1ccc(C2NC(N)=Nc3nc4ccccc4n32)cc1 (centres unmarked) [Compound 125] | > 200
76 | NC1=NC(c2ccc(O)c(O)c2)n2c(nc3ccccc32)N1 (centres unmarked) [Compound 126] | > 160

Same assay, conditions: Table S3, third round of LBVS; MtDXPS; read-out: IC50

Row | SMILES | IC50 [µM]
77 | FC(F)(F)c1ccc(Nc2nc(-c3ccncc3)cs2)cc1 [Compound 132] | > 60
